{"source": "patent US12172967B1", "about": "“3-(4,5-bis(4-bromophenyl)-2-(4-chlorophenyl)-1H-imidazol-1-yl)propanoic acid as an antimicrobial compound” (KING FAISAL UNIVERSITY, priority 2023, dated 2024)", "format_in_all_cases": "cell-based", "key": {"[1]": {"tested_on": "Bacillus cereus", "assay": "agar plate disc-diffusion, antibacterial, Bacillus cereus", "details": "nutrient agar, 37° C., 48 h", "protocol": "(§1) The agar plate disc-diffusion method was applied. […] The discs were then placed onto the surface of agar plates (nutrient agar for bacteria and Sabouraud's dextrose agar for fungi) seeded with the test organism. Each plate contained 15 mL of the agar medium, previously seeded with 0.2 mL of the broth culture of each organism pregrown for 18 h. The plates were incubated at 37° C. for 48 h, and 72 h for fungi. The inhibition zones was measured in mm. Discs impregnated with DMSO were used as a control, and its inhibition zone was subtracted from the tested compound actual inhibition zone."}, "[2]": {"tested_on": "Escherichia coli", "assay": "agar plate disc-diffusion, antibacterial, Escherichia coli", "details": "nutrient agar, 37° C., 48 h", "protocol": "as §1"}, "[3]": {"tested_on": "Pseudomonas aeruginosa", "assay": "agar plate disc-diffusion, antibacterial, Pseudomonas aeruginosa", "details": "nutrient agar, 37° C., 48 h", "protocol": "as §1"}, "[4]": {"tested_on": "Staphylococcus aureus", "assay": "agar plate disc-diffusion, antibacterial, Staphylococcus aureus", "details": "nutrient agar, 37° C., 48 h", "protocol": "as §1"}, "[5]": {"tested_on": "Aspergillus flavus", "assay": "agar plate disc-diffusion, antifungal, Aspergillus flavus", "details": "Sabouraud's dextrose agar, 37° C., 72 h", "protocol": "as §1"}, "[6]": {"tested_on": "Chrysosporium keratinophilum", "assay": "agar plate disc-diffusion, antifungal, Chrysosporium keratinophilum", "details": "Sabouraud's dextrose agar, 37° C., 72 h", "protocol": "as §1"}, "[7]": {"details": "A = concentration of comp. = 10,000 μL"}, "[8]": {"details": "B = concentration of comp. = 30,000 μL"}, "[9]": {"details": "C = concentration of comp. = 50,000 μL"}}, "data": [{"smiles": "O=C(O)CCn1c(-c2ccc(Cl)cc2)nc(-c2ccc(Br)cc2)c1-c1ccc(Br)cc1", "note": "[V, 3-(4,5-bis(4-bromophenyl)-2-(4-chlorophenyl)-1H-imidazol-1-yl)propanoic acid]", "values": [{"measurement": "inhibition zone, Bacillus Cereus, A", "setting": "[1]; [7]", "value": 19, "unit": "mm"}, {"measurement": "inhibition zone, Bacillus Cereus, B", "setting": "[1]; [8]", "value": 21, "unit": "mm"}, {"measurement": "inhibition zone, Bacillus Cereus, C", "setting": "[1]; [9]", "value": 29, "unit": "mm"}, {"measurement": "inhibition zone, Escherichia coli, A", "setting": "[2]; [7]", "value": 28, "unit": "mm"}, {"measurement": "inhibition zone, Escherichia coli, B", "setting": "[2]; [8]", "value": 37, "unit": "mm"}, {"measurement": "inhibition zone, Escherichia coli, C", "setting": "[2]; [9]", "value": 51, "unit": "mm"}, {"measurement": "inhibition zone, Pseudomonas aeruginosa, A", "setting": "[3]; [7]", "value": 25, "unit": "mm"}, {"measurement": "inhibition zone, Pseudomonas aeruginosa, B", "setting": "[3]; [8]", "value": 27, "unit": "mm"}, {"measurement": "inhibition zone, Pseudomonas aeruginosa, C", "setting": "[3]; [9]", "value": 41, "unit": "mm"}, {"measurement": "inhibition zone, Staphylococcus aureus, A", "setting": "[4]; [7]", "value": 17, "unit": "mm"}, {"measurement": "inhibition zone, Staphylococcus aureus, B", "setting": "[4]; [8]", "value": 19, "unit": "mm"}, {"measurement": "inhibition zone, Staphylococcus aureus, C", "setting": "[4]; [9]", "value": 26, "unit": "mm"}, {"measurement": "inhibition zone, Aspergillus flavus, A", "setting": "[5]; [7]", "value": 23, "unit": "mm"}, {"measurement": "inhibition zone, Aspergillus flavus, B", "setting": "[5]; [8]", "value": 27, "unit": "mm"}, {"measurement": "inhibition zone, Aspergillus flavus, C", "setting": "[5]; [9]", "value": 36, "unit": "mm"}, {"measurement": "inhibition zone, Chrysosporium keratinophilum, A", "setting": "[6]; [7]", "value": 24, "unit": "mm"}, {"measurement": "inhibition zone, Chrysosporium keratinophilum, B", "setting": "[6]; [8]", "value": 26, "unit": "mm"}, {"measurement": "inhibition zone, Chrysosporium keratinophilum, C", "setting": "[6]; [9]", "value": 47, "unit": "mm"}]}]}
